US20250129070A1, “BIFUNCTIONAL ANDROGEN RECEPTOR COMPOUNDS” (priority 2023, published 2025)

Experiments:
VCaP cells = assay: VCaP growth inhibition assay; assay type: cell-based; conditions: 30 pM R1881, 9 days, CTG
Procedure, shortened: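 Growth read by CTG luminescence after 9-day exposure to compound (final 100 nM–10 fM, 1:5 steps) plus 30 pM R1881, in phenol red-free DMEM with 5% CSS. Cells pre-incubated 72 h before dosing; IC50 by nonlinear 4-parameter regression.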

AR / CBP ternary complex = assay: Ternary complex formation assay (sandwich ELISA, AR capture / CBP detection) in VCaP cell lysates; assay type: cell-based; conditions: 1.5 hours treatment, sandwich ELISA (AR capture, CBP or p300 detection)
Procedure, shortened: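 Anti-AR (AR 441)-coated plates capture AR from lysates of VCaP cells grown ≥3 days at 50K/well in 5% charcoal-stripped FBS, dosed with bifunctional for 1.5 h and lysed 30 min at 4 °C. Co-captured CBP/p300 is probed with rabbit mAb and HRP anti-rabbit, then QuantaRed fluorescence (570/585) is read at 0, 5 and 15 min.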

IC50 (VCaP cells) | EC50 (AR / CBP ternary complex) | SMILES
≤ 0.1 nM | < 1 nM | CC(=O)N1CCc2c(c(N3CCCc4cc(-c5cnn(C)c5)c(C(F)F)cc43)nn2C2CCN(C(C)CC3CCN(c4ncc(C(=O)NC5C(C)(C)C(Oc6ccc(C#N)c(Cl)c6)C5(C)C)cn4)CC3)CC2)C1 (stereo not drawn) [Compound 171, 2-[4-[2-[4-[5-acetyl-3-[7-(difluoromethyl)-6-(1-methylpyrazol-4-yl)-3,4-dihydro-2H-quinolin-1-yl]-6,7-dihydro-4H-pyrazolo[4,3-c]pyridin-1-yl]-1-piperidyl]propyl]-1-piperidyl]-N-[3-(3-chloro-4-cyano-phenoxy)-2,2,4,4-tetramethyl-cyclobutyl]pyrimidine-5-carboxamide]
0.1 to 1 nM | < 1 nM | CC(=O)N1CCc2c(c(N3CCCc4cc(-c5cnn(C)c5)c(C(F)F)cc43)nn2CCOC2CCN(c3ncc(C(=O)NC4C(C)(C)C(Oc5ccc(C#N)c(Cl)c5)C4(C)C)cn3)CC2)C1 (stereo not drawn) [Compound 51, 2-[4-[2-[5-acetyl-3-[7-(difluoromethyl)-6-(1-methylpyrazol-4-yl)-3,4-dihydro-2H-quinolin-1-yl]-6,7-dihydro-4H-pyrazolo[4,3-c]pyridin-1-yl]ethoxy]-1-piperidyl]-N-[3-(3-chloro-4-cyano-phenoxy)-2,2,4,4-tetramethyl-cyclobutyl]pyrimidine-5-carboxamide]
0.1 to 1 nM | < 1 nM | CC(=O)N1CCc2c(c(N3CCCc4cc(-c5cnn(C)c5)c(C)cc43)nn2C2CCN(CC3CCN(c4ncc(C(=O)NC5C(C)(C)C(Oc6ccc(C#N)c(C)c6)C5(C)C)cn4)CC3(C)C)CC2)C1 (stereo not drawn) [Compound 466, 2-[4-[[4-[5-acetyl-3-[7-methyl-6-(1-methylpyrazol-4-yl)-3,4-dihydro-2H-quinolin-1-yl]-6,7-dihydro-4H-pyrazolo[4,3-c]pyridin-1-yl]-1-piperidyl]methyl]-3,3-dimethyl-1-piperidyl]-N-[3-(4-cyano-3-methyl-phenoxy)-2,2,4,4-tetramethyl-cyclobutyl]pyrimidine-5-carboxamide]
0.1 to 1 nM | < 1 nM | COc1cc(OC2C(C)(C)C(NC(=O)c3ccc(N4CCC(CCc5ccc(-c6cc7c(cn6)N(c6nn(C8CCOCC8)c8c6CN(C(C)=O)CC8)CCC7)cn5)CC4)cc3)C2(C)C)ccc1C#N (stereo not drawn) [Compound 246, 4-[4-[2-[5-[1-(5-acetyl-1-tetrahydropyran-4-yl-6,7-dihydro-4H-pyrazolo[4,3-c]pyridin-3-yl)-3,4-dihydro-2H-1,7-naphthyridin-6-yl]-2-pyridyl]ethyl]-1-piperidyl]-N-[3-(4-cyano-3-methoxy-phenoxy)-2,2,4,4-tetramethyl-cyclobutyl]benzamide]
0.1 to 1 nM | < 1 nM | CC(=O)N1CCc2c(c(N3CCCc4cc(-c5cnn(C)c5)c(C)cc43)nn2C2CCN(C3CCC4(CC3)CN(c3ncc(C(=O)NC5C(C)(C)C(Oc6ccc(C#N)c(C)c6)C5(C)C)cn3)C4)CC2)C1 (stereo not drawn) [Compound 471, 2-[7-[4-[5-acetyl-3-[7-methyl-6-(1-methylpyrazol-4-yl)-3,4-dihydro-2H-quinolin-1-yl]-6,7-dihydro-4H-pyrazolo[4,3-c]pyridin-1-yl]-1-piperidyl]-2-azaspiro[3.5]nonan-2-yl]-N-[3-(4-cyano-3-methyl-phenoxy)-2,2,4,4-tetramethyl-cyclobutyl]pyrimidine-5-carboxamide]
0.1 to 1 nM | < 1 nM | CC(=O)N1CCc2c(c(N3CCCc4cc(-c5cnn(C)c5)c(C(F)F)cc43)nn2C2CCN(CCOc3ncc(C(=O)NC4C(C)(C)C(Oc5ccc(C#N)c(Cl)c5)C4(C)C)cn3)CC2)C1 (stereo not drawn) [Compound 89, 2-[2-[4-[5-acetyl-3-[7-(difluoromethyl)-6-(1-methylpyrazol-4-yl)-3,4-dihydro-2H-quinolin-1-yl]-6,7-dihydro-4H-pyrazolo[4,3-c]pyridin-1-yl]-1-piperidyl]ethoxy]-N-[3-(3-chloro-4-cyano-phenoxy)-2,2,4,4-tetramethyl-cyclobutyl]pyrimidine-5-carboxamide]
≤ 0.1 nM | > 100 nM | CC(=O)N1CCc2c(c(N3CCCc4cc(-c5cnn(C)c5)c(C(F)F)cc43)nn2C2CCN(CC3CCN(c4ncc(C(=O)NC5C(C)(C)C(Oc6ccc(C#N)c(Cl)c6)C5(C)C)nn4)CC3)CC2)C1 (stereo not drawn) [Compound 152]
0.1 to 1 nM | < 1 nM | CC(=O)N1CCc2c(c(N3CCCc4cc(-c5cnn(C)c5)c(C(F)F)cc43)nn2C2CCN(C3CCC4(CC3)CC(Oc3ncc(C(=O)NC5C(C)(C)C(Oc6ccc(C#N)c(Cl)c6)C5(C)C)cn3)C4)CC2)C1 (stereo not drawn) [Compound 383, 2-[7-[4-[5-acetyl-3-[7-(difluoromethyl)-6-(1-methylpyrazol-4-yl)-3,4-dihydro-2H-quinolin-1-yl]-6,7-dihydro-4H-pyrazolo[4,3-c]pyridin-1-yl]-1-piperidyl]spiro[3.5]nonan-2-yl]oxy-N-[3-(3-chloro-4-cyano-phenoxy)-2,2,4,4-tetramethyl-cyclobutyl]pyrimidine-5-carboxamide]
0.1 to 1 nM | < 1 nM | COc1cc(OC2C(C)(C)C(NC(=O)c3ccc(C#CC4CCC(N5CCC(n6nc(N7CCCc8cc(-c9cnn(C)c9)c(C(F)F)cc87)c7c6CCN(C(C)=O)C7)CC5)CC4)cc3)C2(C)C)ccc1C#N (stereo not drawn) [Compound 292, 4-[2-[4-[4-[5-acetyl-3-[7-(difluoromethyl)-6-(1-methylpyrazol-4-yl)-3,4-dihydro-2H-quinolin-1-yl]-6,7-dihydro-4H-pyrazolo[4,3-c]pyridin-1-yl]-1-piperidyl]cyclohexyl]ethynyl]-N-[3-(4-cyano-3-methoxy-phenoxy)-2,2,4,4-tetramethyl-cyclobutyl]benzamide]
≤ 0.1 nM | < 1 nM | COc1cc(OC2C(C)(C)C(NC(=O)c3ccc(N4CCN(C5CCN(c6ccc(-c7cc8cccc(-c9nn(C%10CCOCC%10)c%10c9CN(C(C)=O)CC%10)c8cn7)cn6)CC5)CC4)cc3)C2(C)C)ccc1C#N (stereo not drawn) [Compound 321, 4-[4-[1-[5-[8-(5-acetyl-1-tetrahydropyran-4-yl-6,7-dihydro-4H-pyrazolo[4,3-c]pyridin-3-yl)-3-isoquinolyl]-2-pyridyl]-4-piperidyl]piperazin-1-yl]-N-[3-(4-cyano-3-methoxy-phenoxy)-2,2,4,4-tetramethyl-cyclobutyl]benzamide]
≤ 0.1 nM | < 1 nM | CC(=O)N1CCc2c(c(N3CCCc4cc(-c5cnn(C)c5)c(C(F)F)cc43)nn2C2CCN(CC3CCN(c4ncc(C(=O)NC5C(C)(C)C(Oc6ccc(C#N)c(Cl)c6)C5(C)C)cn4)CC34CC4)CC2)C1 (stereo not drawn) [Compound 357, 2-[8-[[4-[5-acetyl-3-[7-(difluoromethyl)-6-(1-methylpyrazol-4-yl)-3,4-dihydro-2H-quinolin-1-yl]-6,7-dihydro-4H-pyrazolo[4,3-c]pyridin-1-yl]-1-piperidyl]methyl]-5-azaspiro[2.5]octan-5-yl]-N-[3-(3-chloro-4-cyano-phenoxy)-2,2,4,4-tetramethyl-cyclobutyl]pyrimidine-5-carboxamide]

SMILES | IC50 (VCaP cells) | EC50 (AR / CBP ternary complex)
CC(=O)N1CCc2c(c(N3CCCc4cc(-c5cnn(C)c5)c(C)cc43)nn2C2CCN(C(=O)C3CCN(c4ncc(C(=O)NC5C(C)(C)C(Oc6ccc(C#N)c(Cl)c6)C5(C)C)cn4)CC3)CC2)C1 (stereo not drawn) [Compound 120, 2-[4-[4-[5-acetyl-3-[7-methyl-6-(1-methylpyrazol-4-yl)-3,4-dihydro-2H-quinolin-1-yl]-6,7-dihydro-4H-pyrazolo[4,3-c]pyridin-1-yl]piperidine-1-carbonyl]-1-piperidyl]-N-[3-(3-chloro-4-cyano-phenoxy)-2,2,4,4-tetramethyl-cyclobutyl]pyrimidine-5-carboxamide] | ≤ 0.1 nM | < 1 nM
